Source: patent US20250129120A1, “PEPTIDE HAVING ACTIVITY FOR PREVENTING HAIR LOSS OR PROMOTING HAIR GROWTH, AND USE THEREOF” (CAREGEN CO., LTD., priority 2021, published 2025)

What was measured:
c-Myc = assay: RT-PCR of c-Myc expression in HHFDPC; format: cell-based, human; conditions: peptide 500 nM, 5 μM, and 50 μM, 24 hours, FIG. 4
Procedure: (§1) Furthermore, in order to determine whether the β-catenin moves to the nucleus and is activated to affect proliferation and differentiation, whether the expression of LEF-1, c-Myc and cyclin D1 (cyclin D1), which act as downstream factors, increases with β-catenin activation was confirmed through RT-PCR. Specifically, in the same manner as the previous Western blotting experiment, HHFDPC cells were cultured, treated with the peptides of the Preparation Example of the present invention at concentrations of 500 nM, 5 μM, and 50 μM, respectively, and cultured at 37° C. for 24 hours. After washing the cells with PBS, RNA was isolated by treating them with 300 […] of easy blue (intron, Korea). Then, CDNA was synthesized using a cDNA synthesis kit (enzynomics, Korea) by quantifying it with nano drop, and PCR was performed using primers for LEF-1, c-Myc and cyclin D1 (base sequences of the primer are listed in Table 2 below) and PCR premix (enzynomics, Korea). Electrophoresis was performed on a 1.5% agarose gel, and then the mRNA of LEF-1, c-Myc and cyclin D1 was detected using a band analysis system (Bio-Rad gel image system).

MSX2 = assay: RT-PCR of MSX2 expression in HHGMC; format: cell-based, human; conditions: peptide 500 nM, 5 μM, and 50 μM, 72 hours, FIG. 7
Procedure: Specifically, HHGMC (human hair germinal matrix cell, Sciencell, USA) was seeded in a 6-well culture plate at 4×10^5 cells/well and then cultured in MSC complete medium (mesenchymal stem cell complete media) for 24 hours. Next, the medium was replaced with serum free MSC complete medium and cultured again for 24 hours. Then, the HHGMC was treated with the peptide of SEQ ID NO: 1 prepared in the Preparation Example at concentrations of 500 nM, 5 μM, and 50 μM, respectively, and cultured at 37° C. for 72 hours. As a positive control, EGF was treated at a concentration of 50 nM, and as a negative control, HHGMC without any treatment was used. After washing with PBS, RNA was isolated by treating with 300 ? of easy blue (intron, Korea). Next, cDNA was synthesized using a cDNA synthesis kit (enzynomics, Korea) by quantification using nano drop, and PCR was performed using primers for MSX2 (base sequences of the primer are listed in Table 4 below) and PCR premix (enzynomics, Korea). Electrophoresis was performed on a 1.5% agarose gel, and MSX2 mRNA was detected using a band analysis system (Bio-Rad gel image system).

Ha3-II = assay: RT-PCR of Ha3-II expression in HHORSC; format: cell-based, human; conditions: peptide 500 nM, 5 µM, and 50 μM, 72 hours, FIG. 6
Procedure: (§2) Specifically, HHORSC (human hair outer root sheath cell, Sciencell, USA) was seeded in a 6-well culture plate at 4×10^5 cells/well and then cultured in MSC complete medium (mesenchymal stem cell complete media) for 24 hours. Next, the medium was replaced with serum free MSC complete medium and cultured again for 24 hours. Then, the HHORSC was treated with the peptide of SEQ ID NO: 1 prepared in the Preparation Example at concentrations of 500 nM, […], and 50 μM, respectively, and cultured at 37° C. for 72 hours. As a positive control, EGF was treated at a concentration of 50 nM, and as a negative control, HHORSC without any treatment was used. After washing with PBS, RNA was isolated by treating with 300 ? of easy blue (intron, Korea). Then, cDNA was synthesized using a cDNA synthesis kit (enzynomics, Korea) by quantification using nano drop, and PCR was performed using primers for Ha3-II, Keratin 14, and Keratin 19 (the base sequences of primer are shown in Table 3 below) and PCR premix (enzynomics, Korea). Electrophoresis was performed on a 1.5% agarose gel, and the mRNAs of Ha3-II, Keratin 14, and Keratin 19 were detected using a band analysis system (Bio-Rad gel image system).

β-catenin = assay: Western blotting of β-catenin moved to the nucleus in HHFDPC; format: cell-based, human; conditions: HHFDPC nuclear protein, peptide 500 nM, 5 μM, and 50 μM, 24 hours, FIG. 3
Procedure: In addition, in addition to p-AKT and p-ERK, in order to confirm the activation of β-catenin, which is known to affect cell proliferation and differentiation, whether β-catenin moved into the nucleus was confirmed through Western blotting. Specifically, the HHFDPC as in [Experiment Example 1-1] was seeded in a 6-well culture plate at an amount of 4×10^5 cells/well, cultured in MSC complete medium (mesenchymal stem cell complete media) for 24 hours. Next, the medium was replaced with serum free MSC complete medium and cultured again for 24 hours. Then, the HHFDPC was treated with the peptide of SEQ ID NO: 1 prepared in the Preparation Example at concentrations of 500 nM, 5 μM, and 50 μM, respectively, and cultured at 37° C. for 24 hours. As a positive control, minoxidil was treated at a concentration of 1 μM, and as a negative control, HHFDPC without any treatment was used. After washing with PBS, proteins in the nucleus were isolated using a nuclear protein extraction kit (Thermo scientific, USA). After electrophoresis using a 10% SDS-PAGE gel, it was transferred to a PVDF membrane and blocked using 5% skim milk at room temperature for 30 minutes. […] After washing again with 0.1% PBS-T (0.1% Tween-20 in PBS) three times for 15 minutes each, β-catenin was detected by treatment with ECL solution (GE Healthcare, USA).

Keratin 14 = assay: RT-PCR of Keratin 14 expression in HHORSC; format: cell-based, human; conditions: peptide 500 nM, and 50 μM, 72 hours, FIG. 6
Procedure: as §2

[1] = test system: HHFDPC (human hair follicle dermal papilla cells); assay: MTT proliferation assay in dermal papilla cells; format: cell-based; conditions: peptide 500 nM, 5 μM, and 50 μM, 72 hours, vs untreated control, FIG. 1
Procedure: While culturing human hair follicle dermal dermal papilla cells (HHFDPC), the absorbance was measured after treatment with the peptide of the present invention to confirm whether there was an effect of promoting the proliferation of the HHFDPC dermal papilla cells.
Specifically, HHFDPC (Sciencell, USA) was seeded at 4×10^3 cells/well in a 96-well culture plate, cultured in MSC complete medium (mesenchymal stem cell complete media, Sciencell, USA) for 24 hours, and then the medium was replaced with serum free MSC complete medium and cultured for another 24 hours. Then, the HHFDPC was treated with the peptide of SEQ ID NO: 1 prepared in the Preparation Example at concentrations of 500 nM, 5 μM, and 50 μM, respectively, and cultured at 37° C. for 72 hours. As a positive control, minoxidil was treated at a concentration of 1 μM, and as a negative control, HHFDPC without any treatment was used. Then, 10 ? of 5 mg/mL MTT solution was added and cultured in a 37° C. CO2 incubator for 4 hours to stain the cells. After removing the medium, the cells were treated with 100 μl of DMSO and shaken for 10 minutes, and the number of HHFDPC cells was confirmed by measuring absorbance at a wavelength of 540 nm using a spectrophotometer.

p-ERK = assay: Western blotting of phosphorylated ERK in HHFDPC; format: cell-based, human; conditions: peptide 500 nM, 5 μM, and 50 µM, 24 hours, FIG. 2
Procedure: (§3) First, phosphorylated forms of AKT and ERK, which act as signaling molecules related to the proliferation of HHFDPC, were confirmed through Western blotting. Specifically, HHFDPC as in [Experiment Example 1-1] above was seeded at 4×10^5 cells/well in a 6-well culture plate, cultured in MSC complete medium (mesenchymal stem cell complete media) for 24 hours, and then the medium was replaced with serum free MSC complete medium and cultured for another 24 hours. Then, the HHFDPC was treated with the peptide of SEQ ID NO: 1 prepared in the Preparation Example at concentrations of 500 nM, 5 μM, and 50 µM, respectively, and cultured at 37° C. for 24 hours. As a positive control, minoxidil was treated at a concentration of 1 μM, and as a negative control, HHFDPC without any treatment was used. Then, Western blotting was performed to detect phosphorylated AKT and phosphorylated ERK. After washing with PBS, the cells were treated with 100 ? of lysis buffer to destroy cells, thereby obtaining cell lysate. After electrophoresis using a 10% SDS-PAGE gel, it was transferred to a PVDF membrane and blocked using 5% skim milk at room temperature for 30 minutes. […] After washing again with 0.1% PBS-T (0.1% Tween-20 in PBS) three times for 15 minutes each, p-AKT and p-ERK were detected by treatment with ECL solution (GE Healthcare, USA).

Keratin 19 = assay: RT-PCR of Keratin 19 expression in HHORSC; format: cell-based, human; conditions: peptide 500 nM, and 50 μM, 72 hours, FIG. 6
Procedure: as §2

[2] = test system: DKK-1 protein (dickkopf-related protein 1); assay: Western blotting of DKK-1 protein in DHT-treated HHFDPC; format: cell-based, human; conditions: HHFDPC with DHT 100 nM; peptide 500 nM, 5 μM, and 50 μM; 24 hours; vs negative control (DHT only); FIG. 5
Procedure: DKK-1 protein (dickkopf-related protein 1) is a hair loss-related protein known to be highly expressed in individuals with hair loss, especially male pattern hair loss, and its expression is known to be promoted by hormones such as DHT (Dihydrotestosterone). Accordingly, the expression of DKK-1 protein was induced by treating HHFDPC cells with DHT together with the peptide according to the Preparation Example of the present invention, and then the expression level of DKK-1 was measured through Western blotting to determine whether there was an effect of suppressing the expression of DKK-1 protein.
Specifically, HHFDPC as in [Experiment Example 1-1] was seeded in a 6-well culture plate at 4×10^5 cells/well and then cultured in MSC complete medium (mesenchymal stem cell complete media) for 24 hours. Next, the medium was replaced with serum free MSC complete medium and cultured again for 24 hours. In addition, the HHFDPC was treated with the peptide of SEQ ID NO: 1 prepared in Preparation Example at concentrations of 500 nM, 5 μM, and 50 μM, respectively, and at this time, DHT, an expression inducer of DKK-1 protein, was simultaneously treated at a concentration of 100 nM and then cultured at 37° C. for 24 hours. […] After washing again with 0.1% PBS-T (0.1% Tween-20 in PBS) three times for 15 minutes each, DKK-1 protein was detected by treatment with ECL solution (GE Healthcare, USA).

cyclin D1 = assay: RT-PCR of cyclin D1 expression in HHFDPC; format: cell-based, human; conditions: peptide 500 nM, 5 μM, and 50 μM, 24 hours, FIG. 4
Procedure: as §1

LEF-1 = assay: RT-PCR of LEF-1 expression in HHFDPC; format: cell-based, human; conditions: peptide 500 nM, 5 μM, and 50 μM, 24 hours, FIG. 4
Procedure: as §1

p-AKT = assay: Western blotting of phosphorylated AKT in HHFDPC; format: cell-based, human; conditions: peptide 500 nM, 5 μM, and 50 µM, 24 hours, FIG. 2
Procedure: as §3

GGVPG [peptide of the present invention]
amount of c-Myc mRNA (c-Myc): increased further compared to the control group without any treatment | amount of MSX2 mRNA (MSX2): increased further compared to the untreated control group | amount of Ha3-II mRNA (Ha3-II): increased further compared to the control group that did not receive any treatment | migration of β-catenin to the nucleus (activation of β-catenin) (β-catenin): migration due to activation of β-catenin increased | amount of Keratin 14 mRNA (Keratin 14): increased further compared to the control group that did not receive any treatment | proliferation of HHFDPC (absorbance at 540 nm, MTT) [1]: promoted depending on the concentration of the treated peptide | phosphorylation of ERK (p-ERK) (p-ERK): increased compared to the control group not treated with the peptide | amount of Keratin 19 mRNA (Keratin 19): increased further compared to the control group that did not receive any treatment | amount of DKK-1 protein [2]: reduced | amount of cyclin D1 mRNA (cyclin D1): increased further compared to the control group without any treatment | amount of LEF-1 mRNA (LEF-1): increased further compared to the control group without any treatment | phosphorylation of AKT (p-AKT) (p-AKT): increased compared to the control group not treated with the peptide
